According to PubChem BioAssay AID2060329 (Molecular Pharmacology Branch, DTP, NCI, 2025):

Tested on: MCF7 multi-cell spheroids with HUVEC/MSC, viability
Assay: Anticancer human tumor MCF7 cell line growth inhibition [IpAb];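 also: spheroids exposed to agents for seven days before readout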
Conditions: for IC50: curve of first compound; for viability, T/C: stronger effect = lower value
Procedure, shortened: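 Combinations with ipatasertib or abemaciclib were tested on tumour spheroids holding HUVEC (25%) and MSC (15%) alongside 60% malignant cells. Top concentration was at or near clinical Cmax (10 microM if undefined), descending in half-log steps.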

[1] = second compound 0.01 µM, first compound 0.00316 µM
[2] = second compound 0.01 µM, first compound 0.01 µM
[3] = second compound 0.01 µM, first compound 0.0316 µM
[4] = second compound 0.01 µM, first compound 0.1 µM
[5] = second compound 0.0316 µM, first compound 0.00316 µM
[6] = second compound 0.0316 µM, first compound 0.01 µM
[7] = second compound 0.0316 µM, first compound 0.0316 µM
[8] = second compound 0.0316 µM, first compound 0.1 µM
[9] = second compound 0.1 µM, first compound 0.00316 µM
[10] = second compound 0.1 µM, first compound 0.01 µM
[11] = second compound 0.1 µM, first compound 0.0316 µM
[12] = second compound 0.1 µM, first compound 0.1 µM
[13] = second compound 0.316 µM, first compound 0.00316 µM
[14] = second compound 0.316 µM, first compound 0.01 µM
[15] = second compound 0.316 µM, first compound 0.0316 µM
[16] = second compound 0.316 µM, first compound 0.1 µM
[17] = second compound 1 µM, first compound 0.00316 µM
[18] = second compound 1 µM, first compound 0.01 µM
[19] = second compound 1 µM, first compound 0.0316 µM
[20] = second compound 1 µM, first compound 0.1 µM
[21] = second compound 0.01 µM, first compound 0.316 µM
[22] = second compound 0.01 µM, first compound 1 µM
[23] = second compound 0.01 µM, first compound 3.16 µM
[24] = second compound 0.01 µM, first compound 10 µM
[25] = second compound 0.0316 µM, first compound 0.316 µM
[26] = second compound 0.0316 µM, first compound 1 µM
[27] = second compound 0.0316 µM, first compound 3.16 µM
[28] = second compound 0.0316 µM, first compound 10 µM
[29] = second compound 0.1 µM, first compound 0.316 µM
[30] = second compound 0.1 µM, first compound 1 µM
[31] = second compound 0.1 µM, first compound 3.16 µM
[32] = second compound 0.1 µM, first compound 10 µM
[33] = second compound 0.316 µM, first compound 0.316 µM
[34] = second compound 0.316 µM, first compound 1 µM
[35] = second compound 0.316 µM, first compound 3.16 µM
[36] = second compound 0.316 µM, first compound 10 µM
[37] = second compound 1 µM, first compound 0.316 µM
[38] = second compound 1 µM, first compound 1 µM
[39] = second compound 1 µM, first compound 3.16 µM
[40] = second compound 1 µM, first compound 10 µM

Row | Structure (SMILES) | IC50 (second compound 0.01 µM) [nM] | IC50 (second compound 0.0316 µM) [nM] | IC50 (second compound 0.1 µM) [nM] | IC50 (second compound 0.316 µM) [nM] | IC50 (second compound 1 µM) [nM] | viability, T/C [3] [%] | viability, T/C [4] [%] | viability, T/C [7] [%] | viability, T/C [8] [%] | viability, T/C [11] [%] | viability, T/C [12] [%] | viability, T/C [15] [%] | viability, T/C [16] [%] | viability, T/C [19] [%] | viability, T/C [20] [%] | viability, T/C [21] [%] | viability, T/C [22] [%] | viability, T/C [25] [%] | viability, T/C [26] [%] | viability, T/C [29] [%] | further results
1 | CC(C)n1nc(-c2ccc3oc(N)nc3c2)c2c(N)ncnc21 + CCN1CCN(Cc2ccc(Nc3ncc(F)c(-c4cc(F)c5nc(C)n(C(C)C)c5c4)n3)nc2)CC1 | 10.6 | 7.31 | 7.34 | 14.5 | 25.6 | 21.6 | 11.9 | 21 | 13.8 | 19.3 | 16.8 | 34.4 | 28.7 | 47.8 | 41.6 |  |  |  |  |  | viability, T/C (second compound 0.01 µM, first compound 0.000316 µM): 90.9%; viability, T/C (second compound 0.01 µM, first compound 0.001 µM): 103%; viability, T/C [1]: 71.1%; viability, T/C [2]: 55.6%; viability, T/C (second compound 0.0316 µM, first compound 0.000316 µM): 89.3%; viability, T/C (second compound 0.0316 µM, first compound 0.001 µM): 90.2%; viability, T/C [5]: 73.3%; viability, T/C [6]: 40.8%; viability, T/C (second compound 0.1 µM, first compound 0.000316 µM): 95.4%; viability, T/C (second compound 0.1 µM, first compound 0.001 µM): 94%; viability, T/C [9]: 69.2%; viability, T/C [10]: 44.6%; viability, T/C (second compound 0.316 µM, first compound 0.000316 µM): 116%; viability, T/C (second compound 0.316 µM, first compound 0.001 µM): 101%; viability, T/C [13]: 78.2%; viability, T/C [14]: 58.8%; viability, T/C (second compound 1 µM, first compound 0.000316 µM): 102%; viability, T/C (second compound 1 µM, first compound 0.001 µM): 83.1%; viability, T/C [17]: 80.6%; viability, T/C [18]: 55.3%
2 | CC1(C)CCC(CN2CCN(c3ccc(C(=O)NS(=O)(=O)c4ccc(NCC5CCOCC5)c([N+](=O)[O-])c4)c(Oc4cnc5[nH]ccc5c4)c3)CC2)=C(c2ccc(Cl)cc2)C1 + CCN1CCN(Cc2ccc(Nc3ncc(F)c(-c4cc(F)c5nc(C)n(C(C)C)c5c4)n3)nc2)CC1 | 7020 | 7010 | 6630 | 6290 | 5390 | 107 | 93.2 | 97.8 | 94.8 | 107 | 118 | 99.5 | 117 | 105 | 107 | 109 | 96.8 | 94.9 | 91.5 | 102 | viability, T/C [23]: 111%; viability, T/C [24]: 26.4%; viability, T/C [27]: 104%; viability, T/C [28]: 29.2%; viability, T/C [30]: 106%; viability, T/C [31]: 104%; viability, T/C [32]: 20.1%; viability, T/C [33]: 116%; viability, T/C [34]: 104%; viability, T/C [35]: 98.6%; viability, T/C [36]: 17%; viability, T/C [37]: 101%; viability, T/C [38]: 92.7%; viability, T/C [39]: 87.7%; viability, T/C [40]: 9.36%
3 | CCCS(=O)(=O)Nc1ccc(F)c(C(=O)c2c[nH]c3ncc(-c4ccc(Cl)cc4)cc23)c1F + CCN1CCN(Cc2ccc(Nc3ncc(F)c(-c4cc(F)c5nc(C)n(C(C)C)c5c4)n3)nc2)CC1 | > 10000 | > 10000 | > 10000 | > 10000 | 8100 | 97.8 | 106 | 89.6 | 96.7 | 101 | 96.8 | 98.3 | 103 | 101 | 94.7 | 97.5 | 90.1 | 91.7 | 91.9 | 100 | viability, T/C [23]: 93.4%; viability, T/C [24]: 84%; viability, T/C [27]: 85.3%; viability, T/C [28]: 70.1%; viability, T/C [30]: 99.4%; viability, T/C [31]: 88.4%; viability, T/C [32]: 77.3%; viability, T/C [33]: 94%; viability, T/C [34]: 101%; viability, T/C [35]: 93.1%; viability, T/C [36]: 76.5%; viability, T/C [37]: 92.5%; viability, T/C [38]: 87.8%; viability, T/C [39]: 72.9%; viability, T/C [40]: 44.5%
4 | COc1c(OCCCN2CCOCC2)ccc2c3n(c(=NC(=O)c4cnc(N)nc4)nc12)CCN3 + CCN1CCN(Cc2ccc(Nc3ncc(F)c(-c4cc(F)c5nc(C)n(C(C)C)c5c4)n3)nc2)CC1 | 42.3 | 29.8 | 29.7 | 42 | 57.1 | 61.3 | 27.7 | 46.5 | 22.8 | 48.9 | 23.4 | 56.5 | 36.5 | 59 | 41 | 9.2 | 11.6 | 7.69 | 11.1 | 8.37 | viability, T/C [1]: 101%; viability, T/C [2]: 79.7%; viability, T/C [5]: 91.2%; viability, T/C [6]: 82.2%; viability, T/C [9]: 99.2%; viability, T/C [10]: 78.8%; viability, T/C [30]: 9.47%; viability, T/C [13]: 93.1%; viability, T/C [14]: 73.5%; viability, T/C [33]: 17.9%; viability, T/C [34]: 15%; viability, T/C [17]: 94%; viability, T/C [18]: 66.7%; viability, T/C [37]: 36.6%; viability, T/C [38]: 18%
5 | Cc1nc(NC(=O)N2CCCC2C(N)=O)sc1-c1ccnc(C(C)(C)C(F)(F)F)c1 (stereo not given) + CCN1CCN(Cc2ccc(Nc3ncc(F)c(-c4cc(F)c5nc(C)n(C(C)C)c5c4)n3)nc2)CC1 | 3360 | 2430 | 2690 | 3500 | 2730 | 104 | 93.5 | 112 | 108 | 106 | 96.6 | 93 | 105 | 92.3 | 80.2 | 94.8 | 72.6 | 91 | 63.4 | 76 | viability, T/C [23]: 52.2%; viability, T/C [24]: 23.8%; viability, T/C [27]: 48.7%; viability, T/C [28]: 14.2%; viability, T/C [30]: 59.4%; viability, T/C [31]: 56.5%; viability, T/C [32]: 27.3%; viability, T/C [33]: 80.7%; viability, T/C [34]: 61.4%; viability, T/C [35]: 58.9%; viability, T/C [36]: 34%; viability, T/C [37]: 65.6%; viability, T/C [38]: 69.4%; viability, T/C [39]: 48%; viability, T/C [40]: 33.1%
